Test results from the NIST ThermoML archive (doi:10.1016/j.jct.2012.11.005).

Assays:
[1] = refractive index (Na D-line) (dimensionless); details: 293.15 K; 101.33 kPa; Liquid; Standard Abbe refractometry
[2] = 101.33 kPa, Liquid, Vibrating tube method
[3] = Boiling temperature at pressure P; details: Liquid, Closed cell (Static) method

CCCCO [butan-1-ol]
Details | refractive index
[1] | 1.39705

Details | mass density [kg/m3]
[2], 298.15 K | 805.851

C1CCCCC1 [cyclohexane]
Details | refractive index
[1] | 1.42655

Details | mass density [kg/m3]
[2], 293.15 K | 778.414

CC(C)OC(C)C [diisopropyl ether]
Details | refractive index
[1] | 1.36547

Details | mass density [kg/m3]
[2], 298.15 K | 718.511

CCO [ethanol]
Details | refractive index
[1] | 1.35929

Details | Boiling temperature at pressure P [°C] | mass density [kg/m3]
[2], 298.15 K | – | 784.89
[3], 17.99 kPa | 40.00 | –
[3], 20 kPa | 42.23 | –
[3], 29.6 kPa | 50.00 | –
[3], 40 kPa | 56.49 | –
[3], 47.01 kPa | 60.00 | –
[3], 49.99 kPa | 61.37 | –
[3], 59.93 kPa | 65.51 | –
[3], 69.95 kPa | 69.13 | –
[3], 79.91 kPa | 72.33 | –
[3], 89.92 kPa | 75.16 | –
[3], 100.07 kPa | 77.90 | –

CO [methanol]
Details | refractive index
[1] | 1.32643

Details | Boiling temperature at pressure P [°C] | mass density [kg/m3]
[2], 298.15 K | – | 786.624
[3], 19.97 kPa | 28.22 | –
[3], 24.04 kPa | 32.00 | –
[3], 29.98 kPa | 36.41 | –
[3], 39.04 kPa | 42.00 | –
[3], 50.01 kPa | 47.57 | –
[3], 60.94 kPa | 52.00 | –
[3], 69.96 kPa | 55.42 | –
[3], 79.92 kPa | 58.59 | –
[3], 89.99 kPa | 61.58 | –
[3], 100 kPa | 64.18 | –
